Test results published in US12595243B2, “Modulators of extracellular signal-regulated kinase” (GEN1E LIFESCIENCES INC., priority 2023, dated 2026).
Read-outs that look alike come from different tables or passages of the source.

How the values were obtained:
melanoma cell line A375 = experiment: Cytotoxicity in cancer cell lines (CellTiter-Glo), A375; settings: Homo sapiens, A375 cells, mean of three tests
Description: (§2) The cytotoxicity of test compounds was determined for several cell lines including melanoma cell line RPMI-7951, melanoma cell line Sk-Mel-28, melanoma cell line A375, melanoma cell line U87, glioblastoma cell line U87, immortalized human T lymphocyte Jurkat cells, and human pancreatic carcinoma cell line PL-45.
(§3) All cells were obtained from ATCC. RPMI, DMEM, EMEM and pen/strep were obtained from Invitrogen. Normocin® was obtained from InvivoGen. FBS was obtained from Gibco. Cell viability reagent Cell-titer glow was obtained from Promega.
(§4) The growth media for A375 and PL45 cells was DMEM supplemented with antibiotic/anti-mycotic pen/strep and Normocin® (InvivoGen) and 10% FBS.
(§5) Ten (10) mM solutions of each of the test compounds were prepared in dimethyl sulfoxide (DMSO) and serially diluted in DMSO to provide solutions having concentrations of the test compound of 3 mM, 1 mM, 0.3 mM, 0.1 mM, 0.03 mM, or 0.01 mM. Forty (40) μL of each of the solutions were further diluted to 400 μL in the cell specific complete media to provide 10× stock solutions having a 1 mM, 300 μM, 100 μM, 30 μM, 10 μM, 3 μM, 1 μM, or 0.3 μM of the test compound. Ten (10) μL of DMSO was diluted to 400 μL in the complete media and used as the 0 μM control.
(§6) For the cytotoxicity studies, all cells were grown in their respective complete media. Confluent cells were harvested and plated into two 96-well tissue culture treated plates at 5,000-8,000 cells/wells in 180 μL media. Twenty (20) μL of each of the 10× stock solutions were added to the wells and mixed.
(§7) After incubating for 24 h, media was aspirated out and replaced with 180 μL/well of the fresh media and 20 μL/well of the 10× stock solutions in duplicate wells in duplicate plates (Plates 1 and 2; and 3 and 4) and in quadruplicate wells (Plate 5) were added, mixed and cultured for 48 hours. The final concentrations of each test compound were 100 μM, 30 μM, 10 μM, 3 μM, 1 μM, 0.3 μM, 0.1 μM and 0 μM.
(§8) After 48 hours and/or 72 hours following addition of the test compounds, one plate each was removed from the incubator, the media aspirated out, 100 μL of CellTiter-Glo® reagent added to each well, and the resulting luminescent signals measured using a VICTOR-2® plate reader.
(§9) The data from the plate reader were exported to GraphPad (Prism) and data processed using non-linear regression and EC50 value determined.

[1] = test system: melanoma cell line RPMI-7951; experiment: Cytotoxicity in cancer cell lines (CellTiter-Glo), RPMI-7951; format: cell-based; settings: Homo sapiens
Description: (§1) All cells were obtained from ATCC. […] Normocin® was obtained from InvivoGen. FBS was obtained from Gibco. […] All test compounds were synthesized as described herein.

[2] = test system: glioblastoma cell line U87; experiment: Cytotoxicity in cancer cell lines (CellTiter-Glo), U87; format: cell-based
Description: as §1

[3] = test system: melanoma cell line Sk-Mel-28; experiment: Cytotoxicity in cancer cell lines (CellTiter-Glo), Sk-Mel-28; format: cell-based
Description: as §1

[4] = test system: immortalized human T lymphocyte Jurkat cells; experiment: Cytotoxicity in cancer cell lines (CellTiter-Glo), Jurkat; format: cell-based
Description: as §1

[5] = test system: human pancreatic carcinoma cell line PL-45; experiment: Cytotoxicity in cancer cell lines (CellTiter-Glo), PL-45; settings: PL45, 48 h, read-out: Cytotoxicity EC50 at 48 hours, PL-45
Description: as §2, §3, §4, §5, §6, §7, §8, §9

[6] = A-375, 48 h, read-out: Cytotoxicity EC50 at 48 hours, A375, 48 h
[7] = RPMI-7951, 48 h, read-out: Cytotoxicity EC50 at 48 hours, RPMI
[8] = Homo sapiens, U-87 MG, 48 h; U87 cells; mean of three tests; read-out: Cytotoxicity EC50 at 48 hours, U87
[9] = Homo sapiens, SK-MEL-28, 48 h, 48 h, Sk-Mel-28 cells, mean of three tests, read-out: Cytotoxicity EC50 at 48 hours, Sk mel
[10] = 48 h, Jurkat cells, mean of three tests, read-out: Cytotoxicity EC50 at 48 hours, Jurkat
[11] = A-375, 72 h, read-out: Cytotoxicity EC50 at 72 hours, A375, 72 h
[12] = RPMI-7951, 72 h, read-out: Cytotoxicity EC50 at 72 hours, RPMI
[13] = Homo sapiens, U-87 MG, 72 h; U87 cells; mean of three tests; read-out: Cytotoxicity EC50 at 72 hours, U87
[14] = Homo sapiens, SK-MEL-28, 72 h, 72 h, Sk-Mel-28 cells, mean of three tests, read-out: Cytotoxicity EC50 at 72 hours, Sk mel
[15] = 72 h, Jurkat cells, mean of three tests, read-out: Cytotoxicity EC50 at 72 hours, Jurkat
[16] = Homo sapiens, SK-MEL-28, 48 h, read-out: Cytotoxicity EC50 at 48 hours, Sk mel
[17] = Homo sapiens, SK-MEL-28, 72 h, read-out: Cytotoxicity EC50 at 72 hours, Sk mel
[18] = Homo sapiens, U-87 MG, 48 h, read-out: Cytotoxicity EC50 at 48 hours, U87
[19] = Homo sapiens, U-87 MG, 72 h, read-out: Cytotoxicity EC50 at 72 hours, U87
[20] = Jurkat, 48 h, read-out: Cytotoxicity EC50 at 48 hours, Jurkat
[21] = Jurkat, 72 h, read-out: Cytotoxicity EC50 at 72 hours, Jurkat

Row | SMILES | EC50 (melanoma cell line A375; [6]) | EC50 [1, 7] | EC50 [2, 8] | EC50 [3, 9] | EC50 [4, 10] | EC50 (melanoma cell line A375; [11]) | EC50 [1, 12] | other results
1 | CN(C1C=CS(=O)(=O)C1)S(=O)(=O)c1ccc2ccccc2c1 (stereo not drawn) [(2), N-(1,1-dioxido-2,3-dihydrothiophen-3-yl)-N-methylnaphthalene-2-sulfonamide] | > 100 µM | 85 µM | > 100 µM | > 100 µM | 53 µM | – | – | –
2 | O=S1(=O)C=CC(NS(=O)(=O)c2ccc3ccccc3c2)C1 (stereo not drawn) [(3), N-(1,1-dioxido-2,3-dihydrothiophen-3-yl)naphthalene-2-sulfonamide] | 14 µM | 19 µM | 100 µM | > 100 µM | 6 µM | – | – | –
3 | O=S1(=O)C=CC(OCc2ccc3ccccc3c2)C1 (stereo not drawn) [(4), 3-(naphthalen-2-ylmethoxy)-2,3-dihydrothiophene 1,1-dioxide] | 19 µM | 44 µM | > 100 µM | 78 µM | 7 µM | 5 µM | 26 µM | EC50 [2, 13]: 53 µM; EC50 [3, 14]: 42 µM; EC50 [4, 15]: 4 µM
4 | O=S1(=O)C=CC(OCc2ccc(-c3ccccc3)cc2)C1 (stereo not drawn) [(5), 3-([1,1′-biphenyl]-4-ylmethoxy)-2,3-dihydrothiophene 1,1-dioxide] | 80 µM | 72 µM | > 100 µM | > 100 µM | 6 µM | 75 µM | 86 µM | EC50 [2, 13]: > 100 µM; EC50 [3, 14]: > 100 µM; EC50 [4, 15]: 2 µM
5 | O=S1(=O)C=CC(OCc2ccc(Oc3ccccc3)cc2)C1 (stereo not drawn) [(6), 3-((4-phenoxybenzyl)oxy)-2,3-dihydrothiophene 1,1-dioxide] | 24 µM | 40 µM | > 100 µM | 69 µM | > 100 µM | 19 µM | 24 µM | EC50 [2, 13]: 46 µM; EC50 [3, 14]: 48 µM; EC50 [4, 15]: > 100 µM
6 | O=S1(=O)C=CC(OCCc2ccc3ccccc3c2)C1 (stereo not drawn) [(7), 3-(2-(naphthalen-2-yl)ethoxy)-2,3-dihydrothiophene 1,1-dioxide] | 29 µM | 19 µM | – | 95 µM | 10 µM | – | – | –
7 | O=C(COC1C=CS(=O)(=O)C1)c1ccc2ccccc2c1 (stereo not drawn) [(8), 2-((1,1-dioxido-2,3-dihydrothiophen-3-yl)oxy)-1-(naphthalen-2-yl)ethan-1-one] | 11 µM | 20 µM | – | – | 0.5 µM | 46 µM | 16 µM | EC50 ([2]; Homo sapiens, U-87 MG; 48 h; U87 cells; mean of three tests; read-out: Cytotoxicity EC50 at 48 hours, U87): > 100 µM; EC50 ([2]; Homo sapiens, U-87 MG; 72 h; U87 cells; mean of three tests; read-out: Cytotoxicity EC50 at 72 hours, U87): 37 µM; EC50 [3, 16]: > 100 µM; EC50 [3, 17]: 77 µM; EC50 [4, 15]: 0.5 µM
8 | O=C(COC1C=CS(=O)(=O)C1)c1ccc(-c2ccccc2)cc1 (stereo not drawn) [(9), 1-([1,1′-biphenyl]-4-yl)-2-((1,1-dioxido-2,3-dihydrothiophen-3-yl)oxy)ethan-1-one] | 19 µM | 11 µM | – | – | – | 47 µM | 10 µM | EC50 [2, 18]: 32 µM; EC50 [2, 19]: 28 µM; EC50 [3, 16]: 71 µM; EC50 [3, 17]: 12 µM; EC50 [4, 20]: 22 µM; EC50 [4, 21]: 9 µM
9 | O=C(Nc1ccc2ccccc2c1)OC1C=CS(=O)(=O)C1 (stereo not drawn) [(10), 1,1-dioxido-2,3-dihydrothiophen-3-yl naphthalen-2-ylcarbamate] | 31 µM | 39 µM | – | – | – | 46 µM | 28 µM | EC50 [2, 18]: > 100 µM; EC50 [2, 19]: 31 µM; EC50 [3, 16]: 38 µM; EC50 [3, 17]: 25 µM; EC50 [4, 20]: > 100 µM; EC50 [4, 21]: 8 µM
10 | O=C(Nc1ccc(-c2ccccc2)cc1)OC1C=CS(=O)(=O)C1 (stereo not drawn) [(11), 1,1-dioxido-2,3-dihydrothiophen-3-yl [1,1′-biphenyl]-4-ylcarbamate] | – | 25 µM | – | – | – | 97 µM | 12 µM | EC50 [2, 18]: 3 µM; EC50 [3, 16]: 66 µM; EC50 [3, 17]: 62 µM; EC50 [4, 20]: 10 µM
11 | O=C(Nc1ccc2ccccc2c1)NC1C=CS(=O)(=O)C1 (stereo not drawn) [(12), 1-(1,1-dioxido-2,3-dihydrothiophen-3-yl)-3-(naphthalen-2-yl)urea] | > 100 µM | 100 µM | – | – | – | – | – | EC50 [2, 18]: > 100 µM; EC50 [3, 16]: > 100 µM; EC50 [4, 20]: > 100 µM
12 | O=C(Nc1ccc(-c2ccccc2)cc1)NC1C=CS(=O)(=O)C1 (stereo not drawn) [(13), 1-([1,1′-biphenyl]-4-yl)-3-(1,1-dioxido-2,3-dihydrothiophen-3-yl)urea] | > 100 µM | > 100 µM | 1 µM | > 100 µM | 86 µM | – | – | –
13 | O=C(NC1C=CS(=O)(=O)C1)c1ccc2ccccc2c1 (stereo not drawn) [(14), N-(1,1-dioxido-2,3-dihydrothiophen-3-yl)-2-naphthamide] | 86 µM | 12 µM | > 100 µM | > 100 µM | 10 µM | 70 µM | 9.4 µM | EC50 [3, 14]: 100 µM
14 | O=C(Cc1ccc2ccccc2c1)NC1C=CS(=O)(=O)C1 (stereo not drawn) [(15), N-(1,1-dioxido-2,3-dihydrothiophen-3-yl)-2-(naphthalen-2-yl)acetamide] | 42 µM | 36 µM | 100 µM | 73 µM | 26 µM | – | – | –
15 | CN(C1CCS(=O)(=O)C1)S(=O)(=O)c1ccc2ccccc2c1 (stereo not drawn) [(16)] | > 100 µM | > 100 µM | > 100 µM | > 100 µM | 9 µM | 100 µM | > 100 µM | EC50 [2, 13]: > 100 µM; EC50 [3, 14]: > 100 µM; EC50 [4, 15]: 8 µM
16 | CN(C1=CS(=O)(=O)CC1)S(=O)(=O)c1ccc2ccccc2c1 [(19), N-(1,1-dioxido-4,5-dihydrothiophen-3-yl)-N-methylnaphthalene-2-sulfonamide] | > 100 µM | > 100 µM | > 100 µM | 82 µM | > 100 µM | – | – | EC50 ([3]; 48 h, Sk-Mel-28 cells, mean of three tests, read-out: Cytotoxicity EC50 at 48 hours, Sk mel): > 100 µM
17 | CN(C1=CCS(=O)(=O)C1)S(=O)(=O)c1ccc2ccccc2c1 [(20), N-(1,1-dioxido-2,5-dihydrothiophen-3-yl)-N-methylnaphthalene-2-sulfonamide] | > 100 µM | > 100 µM | > 100 µM | > 100 µM | > 100 µM | – | – | –
18 | O=C(OC1C=CS(=O)(=O)C1)c1ccc(Oc2ccccc2)cc1 (stereo not drawn) [(23), 1,1-Dioxido-2,3-dihydrothiophen-3-yl 4-phenoxybenzoate] | 23 µM | – | – | – | – | – | – | EC50 [5]: 8.3 µM
19 | CCOS(=O)(=O)c1ccc2ccccc2c1 [(31), ethyl naphthalene-2-sulfonate] | > 100 µM | – | – | – | – | – | – | –
20 | CC(C)OS(=O)(=O)c1ccc2ccccc2c1 [(32), isopropyl naphthalene-2-sulfonate] | > 100 µM | – | – | – | – | – | – | –
